Here are results for three molecules from ChEMBL document CHEMBL5291721, “A preclinical secondary pharmacology resource illuminates target-adverse drug reaction associations of marketed drugs” (Nat Commun, 2023).

Usually AC50 stands for the concentration giving half of the maximal activity seen.

Among the targets are Histamine H1 receptor (Homo sapiens, UniProt P35367); Vasopressin V2 receptor (Homo sapiens, UniProt P30518); Histamine H3 receptor (Homo sapiens, UniProt Q9Y5N1); Melanocortin receptor 3 (Homo sapiens, UniProt P41968).
Another assay has as its target Histamine H2 receptor (Homo sapiens, UniProt P25021). Type of assay: functional, cell-based.
Assay [1] concerns the target Sodium-dependent noradrenaline transporter (Homo sapiens, UniProt P23975).
The target in assay [2] is Beta-1 adrenergic receptor (Homo sapiens, UniProt P08588). Type of assay: functional.
Sequence of Beta-1 adrenergic receptor (P08588 whole entry): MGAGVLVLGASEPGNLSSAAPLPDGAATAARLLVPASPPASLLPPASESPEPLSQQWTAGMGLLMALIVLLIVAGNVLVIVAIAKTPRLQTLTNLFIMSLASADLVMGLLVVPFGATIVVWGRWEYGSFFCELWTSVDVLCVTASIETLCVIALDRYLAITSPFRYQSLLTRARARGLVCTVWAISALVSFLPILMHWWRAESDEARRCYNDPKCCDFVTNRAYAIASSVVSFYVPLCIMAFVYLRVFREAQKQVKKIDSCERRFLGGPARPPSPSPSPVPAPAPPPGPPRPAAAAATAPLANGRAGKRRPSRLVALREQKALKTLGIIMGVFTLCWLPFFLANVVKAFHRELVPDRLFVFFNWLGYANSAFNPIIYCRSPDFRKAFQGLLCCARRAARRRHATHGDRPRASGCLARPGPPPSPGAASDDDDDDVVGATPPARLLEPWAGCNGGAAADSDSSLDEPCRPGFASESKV
For assay [3], the target named is Voltage-dependent L-type calcium channel subunit alpha-1C (Rattus norvegicus, UniProt P22002). Type of assay: functional.
Sequence of Voltage-dependent L-type calcium channel subunit alpha-1C (P22002 whole entry): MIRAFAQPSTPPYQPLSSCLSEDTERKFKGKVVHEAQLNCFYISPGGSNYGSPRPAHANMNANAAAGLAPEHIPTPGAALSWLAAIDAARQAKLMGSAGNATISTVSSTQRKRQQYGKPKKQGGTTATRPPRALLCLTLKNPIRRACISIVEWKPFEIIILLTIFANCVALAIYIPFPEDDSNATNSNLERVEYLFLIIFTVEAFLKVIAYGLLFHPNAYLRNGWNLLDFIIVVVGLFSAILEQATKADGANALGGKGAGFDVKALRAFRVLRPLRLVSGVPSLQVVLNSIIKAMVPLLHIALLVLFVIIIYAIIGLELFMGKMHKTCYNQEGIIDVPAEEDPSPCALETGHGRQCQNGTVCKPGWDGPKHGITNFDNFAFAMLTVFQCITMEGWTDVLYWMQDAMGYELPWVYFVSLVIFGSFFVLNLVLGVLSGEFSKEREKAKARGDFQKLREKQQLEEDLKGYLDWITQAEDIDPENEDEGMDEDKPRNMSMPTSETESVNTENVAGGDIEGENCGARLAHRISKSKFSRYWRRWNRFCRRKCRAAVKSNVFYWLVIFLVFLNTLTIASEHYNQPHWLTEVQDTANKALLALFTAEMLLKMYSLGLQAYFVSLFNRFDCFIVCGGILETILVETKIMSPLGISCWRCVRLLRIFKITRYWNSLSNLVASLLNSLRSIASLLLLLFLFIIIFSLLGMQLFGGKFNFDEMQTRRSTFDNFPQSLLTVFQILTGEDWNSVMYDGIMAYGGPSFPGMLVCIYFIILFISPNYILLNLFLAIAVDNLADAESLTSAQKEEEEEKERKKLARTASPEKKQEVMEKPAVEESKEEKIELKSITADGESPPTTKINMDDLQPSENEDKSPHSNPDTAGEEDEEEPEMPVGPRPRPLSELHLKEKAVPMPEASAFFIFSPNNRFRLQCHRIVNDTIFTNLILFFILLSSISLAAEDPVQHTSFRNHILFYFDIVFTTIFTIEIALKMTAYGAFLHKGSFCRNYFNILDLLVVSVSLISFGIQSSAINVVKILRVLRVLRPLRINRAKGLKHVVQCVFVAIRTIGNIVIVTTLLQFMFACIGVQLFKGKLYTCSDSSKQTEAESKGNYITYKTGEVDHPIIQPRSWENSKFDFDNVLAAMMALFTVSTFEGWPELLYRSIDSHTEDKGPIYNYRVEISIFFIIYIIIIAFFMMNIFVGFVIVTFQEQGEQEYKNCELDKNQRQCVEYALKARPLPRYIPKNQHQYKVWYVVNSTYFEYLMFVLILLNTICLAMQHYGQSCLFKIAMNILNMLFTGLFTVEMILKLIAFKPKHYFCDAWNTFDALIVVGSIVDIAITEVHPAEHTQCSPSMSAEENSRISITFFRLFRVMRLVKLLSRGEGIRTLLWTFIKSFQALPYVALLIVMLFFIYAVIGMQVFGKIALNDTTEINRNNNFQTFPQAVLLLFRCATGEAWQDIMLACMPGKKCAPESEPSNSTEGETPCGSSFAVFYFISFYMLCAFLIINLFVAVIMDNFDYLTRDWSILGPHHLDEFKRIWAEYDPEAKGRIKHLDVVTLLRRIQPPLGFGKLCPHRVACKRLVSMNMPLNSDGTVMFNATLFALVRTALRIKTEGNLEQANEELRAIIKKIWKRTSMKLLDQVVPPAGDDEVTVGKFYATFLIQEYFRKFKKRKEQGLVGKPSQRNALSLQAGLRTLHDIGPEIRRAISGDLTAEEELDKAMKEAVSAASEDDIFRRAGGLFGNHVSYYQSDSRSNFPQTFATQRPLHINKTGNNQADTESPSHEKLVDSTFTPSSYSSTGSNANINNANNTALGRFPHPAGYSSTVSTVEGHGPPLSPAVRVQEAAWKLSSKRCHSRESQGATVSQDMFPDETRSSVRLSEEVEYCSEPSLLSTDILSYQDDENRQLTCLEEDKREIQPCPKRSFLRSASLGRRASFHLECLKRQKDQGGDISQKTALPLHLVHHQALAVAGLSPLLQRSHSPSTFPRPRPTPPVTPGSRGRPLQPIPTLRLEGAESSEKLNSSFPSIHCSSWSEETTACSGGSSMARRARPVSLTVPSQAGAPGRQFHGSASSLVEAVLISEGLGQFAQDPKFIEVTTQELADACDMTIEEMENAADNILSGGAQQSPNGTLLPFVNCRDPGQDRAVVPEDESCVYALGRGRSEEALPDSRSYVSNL
In assay [4] the target is T1, 5-hydroxytryptamine receptor 2B (Homo sapiens, UniProt P41595). Type of assay: functional, cell-based.
A further assay has as its target T2, Thromboxane A2 receptor (Homo sapiens, UniProt P21731).
T2 sequence (P21731 whole entry): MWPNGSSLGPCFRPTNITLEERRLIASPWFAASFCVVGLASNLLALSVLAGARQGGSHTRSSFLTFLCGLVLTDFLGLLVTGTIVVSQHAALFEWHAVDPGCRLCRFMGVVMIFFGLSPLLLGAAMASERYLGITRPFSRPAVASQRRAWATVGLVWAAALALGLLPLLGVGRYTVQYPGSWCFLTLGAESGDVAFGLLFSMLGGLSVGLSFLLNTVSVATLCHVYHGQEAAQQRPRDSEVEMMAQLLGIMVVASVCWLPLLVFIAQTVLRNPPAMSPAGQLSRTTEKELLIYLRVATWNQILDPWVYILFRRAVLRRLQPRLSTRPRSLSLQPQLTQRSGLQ

Assay [5] has as its target 3',5'-cyclic-AMP phosphodiesterase 4D (Homo sapiens, UniProt Q08499). Type of assay: functional.
A further assay deals with T3, Adenosine receptor A3 (Homo sapiens, UniProt P0DMS8).
T3 sequence (P0DMS8 whole entry): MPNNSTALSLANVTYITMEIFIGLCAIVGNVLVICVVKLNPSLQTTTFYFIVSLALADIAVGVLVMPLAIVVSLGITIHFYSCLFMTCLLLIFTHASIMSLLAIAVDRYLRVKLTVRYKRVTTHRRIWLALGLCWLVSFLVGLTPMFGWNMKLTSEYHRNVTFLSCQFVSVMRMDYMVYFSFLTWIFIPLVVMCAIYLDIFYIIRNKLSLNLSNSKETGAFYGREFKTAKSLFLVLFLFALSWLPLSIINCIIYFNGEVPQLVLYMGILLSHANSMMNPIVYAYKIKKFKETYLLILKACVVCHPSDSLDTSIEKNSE

In assay [6] the target is T4, Beta-2 adrenergic receptor (Homo sapiens, UniProt P07550). Type of assay: functional, cell-based.
T4 sequence (P07550 whole entry): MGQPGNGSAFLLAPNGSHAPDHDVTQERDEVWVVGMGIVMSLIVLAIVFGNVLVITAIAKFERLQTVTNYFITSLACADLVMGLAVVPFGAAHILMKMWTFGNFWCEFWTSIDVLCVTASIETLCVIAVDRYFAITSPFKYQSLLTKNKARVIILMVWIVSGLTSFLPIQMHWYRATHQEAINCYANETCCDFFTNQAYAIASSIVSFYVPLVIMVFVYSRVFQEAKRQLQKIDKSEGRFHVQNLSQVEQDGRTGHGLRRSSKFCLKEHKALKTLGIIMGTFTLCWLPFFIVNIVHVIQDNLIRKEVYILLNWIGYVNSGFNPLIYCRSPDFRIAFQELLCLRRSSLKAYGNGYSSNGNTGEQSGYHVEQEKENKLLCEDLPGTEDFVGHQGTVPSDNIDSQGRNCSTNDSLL
Assay [7] addresses T4, Beta-2 adrenergic receptor.
For assay [8], the target named is T5, Muscarinic acetylcholine receptor M2 (Homo sapiens, UniProt P08172).
T5 sequence (P08172 whole entry): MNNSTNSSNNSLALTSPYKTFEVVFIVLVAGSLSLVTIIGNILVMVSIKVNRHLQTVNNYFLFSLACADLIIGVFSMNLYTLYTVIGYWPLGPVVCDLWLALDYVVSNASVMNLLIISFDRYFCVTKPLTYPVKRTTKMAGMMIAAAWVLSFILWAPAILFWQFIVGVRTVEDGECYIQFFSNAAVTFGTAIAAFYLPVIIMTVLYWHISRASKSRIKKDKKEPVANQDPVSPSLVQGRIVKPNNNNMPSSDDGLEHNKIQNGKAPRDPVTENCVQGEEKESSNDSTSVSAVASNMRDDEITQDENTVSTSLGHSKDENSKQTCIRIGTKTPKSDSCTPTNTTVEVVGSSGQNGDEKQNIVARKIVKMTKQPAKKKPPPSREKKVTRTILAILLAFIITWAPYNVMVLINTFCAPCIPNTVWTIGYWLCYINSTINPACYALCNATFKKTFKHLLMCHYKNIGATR
Type of assay: functional, cell-based.

Assay [9] has as its target T6, Alpha-1A adrenergic receptor (Homo sapiens, UniProt P35348).
T6 sequence (P35348 whole entry): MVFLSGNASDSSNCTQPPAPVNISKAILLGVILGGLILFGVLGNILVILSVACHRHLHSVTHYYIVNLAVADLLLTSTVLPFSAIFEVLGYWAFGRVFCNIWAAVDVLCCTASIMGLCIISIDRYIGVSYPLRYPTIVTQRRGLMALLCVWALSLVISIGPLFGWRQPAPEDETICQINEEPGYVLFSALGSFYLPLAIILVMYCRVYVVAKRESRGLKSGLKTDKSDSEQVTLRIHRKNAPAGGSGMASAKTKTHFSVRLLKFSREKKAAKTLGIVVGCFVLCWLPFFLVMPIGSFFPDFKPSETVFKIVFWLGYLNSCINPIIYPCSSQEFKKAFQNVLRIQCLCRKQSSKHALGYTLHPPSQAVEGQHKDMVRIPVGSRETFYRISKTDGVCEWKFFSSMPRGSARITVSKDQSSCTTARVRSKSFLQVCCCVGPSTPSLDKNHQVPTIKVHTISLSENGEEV
Type of assay: functional, cell-based.

Assay [10] deals with T6, Alpha-1A adrenergic receptor. Type of assay: functional, cell-based. This is another data set of the same source.
Assay [11] concerns the target T7, Type-1 angiotensin II receptor (Homo sapiens, UniProt P30556).
T7 sequence (P30556 whole entry): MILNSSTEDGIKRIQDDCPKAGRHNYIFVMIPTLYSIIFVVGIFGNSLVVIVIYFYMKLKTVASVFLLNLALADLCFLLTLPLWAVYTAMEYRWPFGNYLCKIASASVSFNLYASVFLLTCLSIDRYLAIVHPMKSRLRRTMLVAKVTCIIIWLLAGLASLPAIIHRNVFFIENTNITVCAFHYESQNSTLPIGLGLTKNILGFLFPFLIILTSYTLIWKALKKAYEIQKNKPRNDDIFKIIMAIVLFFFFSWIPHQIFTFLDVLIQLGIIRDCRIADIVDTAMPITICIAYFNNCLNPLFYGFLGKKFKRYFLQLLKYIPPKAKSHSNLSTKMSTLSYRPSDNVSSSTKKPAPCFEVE

In assay [12] the target is Delta-type opioid receptor (Homo sapiens, UniProt P41143).
Assay [13] concerns the target T1, 5-hydroxytryptamine receptor 2B. Type of assay: functional, cell-based. The source holds these as a separate data set.
Note: assay procedure not described here.

Sequence of Sodium-dependent noradrenaline transporter (P23975 whole entry): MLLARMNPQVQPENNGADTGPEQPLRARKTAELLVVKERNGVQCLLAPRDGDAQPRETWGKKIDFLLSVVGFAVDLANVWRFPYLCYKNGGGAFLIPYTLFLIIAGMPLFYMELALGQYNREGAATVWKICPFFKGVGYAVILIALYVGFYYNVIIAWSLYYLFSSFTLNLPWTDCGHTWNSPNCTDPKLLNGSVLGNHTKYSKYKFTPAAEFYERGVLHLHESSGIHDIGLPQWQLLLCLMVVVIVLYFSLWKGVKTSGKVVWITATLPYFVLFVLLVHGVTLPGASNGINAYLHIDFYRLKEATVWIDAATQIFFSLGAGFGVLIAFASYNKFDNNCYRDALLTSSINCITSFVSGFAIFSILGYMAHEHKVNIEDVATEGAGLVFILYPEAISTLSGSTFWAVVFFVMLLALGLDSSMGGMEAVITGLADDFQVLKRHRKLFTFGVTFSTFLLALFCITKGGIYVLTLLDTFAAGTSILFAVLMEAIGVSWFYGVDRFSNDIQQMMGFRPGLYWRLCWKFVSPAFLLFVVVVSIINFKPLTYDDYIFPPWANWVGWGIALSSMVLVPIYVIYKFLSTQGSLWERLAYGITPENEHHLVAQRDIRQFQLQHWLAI
Sequence of Histamine H2 receptor (P25021 whole entry): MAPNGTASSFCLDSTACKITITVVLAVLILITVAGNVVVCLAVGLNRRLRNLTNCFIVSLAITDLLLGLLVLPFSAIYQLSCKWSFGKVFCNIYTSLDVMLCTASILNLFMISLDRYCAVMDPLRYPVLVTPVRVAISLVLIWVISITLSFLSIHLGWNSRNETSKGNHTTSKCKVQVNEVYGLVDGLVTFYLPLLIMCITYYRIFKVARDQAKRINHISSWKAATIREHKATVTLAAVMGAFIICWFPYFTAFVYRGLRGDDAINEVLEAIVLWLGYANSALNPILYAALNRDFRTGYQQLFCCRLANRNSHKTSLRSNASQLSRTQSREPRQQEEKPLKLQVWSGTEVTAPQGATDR
Sequence of Melanocortin receptor 3 (P41968 whole entry): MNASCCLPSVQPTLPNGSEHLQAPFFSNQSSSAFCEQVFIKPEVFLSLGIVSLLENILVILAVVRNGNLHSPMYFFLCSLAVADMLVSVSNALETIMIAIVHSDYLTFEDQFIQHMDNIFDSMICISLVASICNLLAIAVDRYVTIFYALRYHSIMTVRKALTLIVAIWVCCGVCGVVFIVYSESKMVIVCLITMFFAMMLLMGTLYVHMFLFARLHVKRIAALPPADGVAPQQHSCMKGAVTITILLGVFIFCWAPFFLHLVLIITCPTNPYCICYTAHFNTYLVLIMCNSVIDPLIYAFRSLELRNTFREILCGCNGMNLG
Sequence of Histamine H1 receptor (P35367 whole entry): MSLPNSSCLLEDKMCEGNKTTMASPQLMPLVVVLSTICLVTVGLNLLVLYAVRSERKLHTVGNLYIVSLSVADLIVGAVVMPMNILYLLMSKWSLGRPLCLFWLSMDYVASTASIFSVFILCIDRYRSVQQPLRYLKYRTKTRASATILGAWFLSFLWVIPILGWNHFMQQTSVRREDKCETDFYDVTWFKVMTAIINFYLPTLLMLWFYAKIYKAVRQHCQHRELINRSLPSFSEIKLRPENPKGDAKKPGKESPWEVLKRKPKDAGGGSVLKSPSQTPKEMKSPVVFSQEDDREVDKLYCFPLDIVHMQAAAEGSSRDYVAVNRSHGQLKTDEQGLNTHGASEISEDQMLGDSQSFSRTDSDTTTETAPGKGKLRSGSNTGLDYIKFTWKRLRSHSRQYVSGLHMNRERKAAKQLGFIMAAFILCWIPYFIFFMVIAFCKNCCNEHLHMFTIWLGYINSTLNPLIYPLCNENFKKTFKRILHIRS

For `CN(C)CC/C=C1\c2ccccc2CSc2ccccc21` [DOTHIEPIN], the AC50 on Histamine H1 receptor was 0.019 µM; on Vasopressin V2 receptor it was over 30 µM; on Histamine H3 receptor, 29 µM; at Histamine H2 receptor, over 30 µM; in assay [1], 0.8 µM; in assay [2], over 30 µM. In addition, the AC50 in [3] is 24 µM; in [4], over 30 µM; on Thromboxane A2 receptor it was over 30 µM; in assay [5] it was over 30 µM; at Adenosine receptor A3, over 30 µM; in assay [6], over 30 µM. The AC50 is over 30 µM in [7]; 1.4 µM in assay [8]; over 30 µM in [9]; 0.87 µM in assay [10]; 25 µM on Melanocortin receptor 3; over 30 µM in assay [11]. Also, the half-maximal activity concentration (AC50) in assay [12] is over 30 µM; in assay [13] it was 3.6 µM.
Turning to `COc1ccc(C(=O)Nc2ccccc2CCC2CCCCN2C)cc1` (stereo not given) [ENCAINIDE], the half-maximal activity concentration (AC50) at Histamine H1 receptor was over 10 µM; on Vasopressin V2 receptor it was over 30 µM; at Histamine H3 receptor it was over 10 µM; at Histamine H2 receptor, over 10 µM; in assay [1] it was over 10 µM; in assay [2] it was over 10 µM. Also, the concentration at half-maximal activity (AC50) in assay [3] is over 10 µM; in [4], over 10 µM; at Thromboxane A2 receptor it was over 30 µM; in assay [5], over 30 µM; on Adenosine receptor A3, over 30 µM; in [6] it was over 30 µM. Besides, the AC50 in assay [7] was over 10 µM; in assay [8] it was over 10 µM; in [9] it was over 30 µM; in assay [10], over 30 µM; at Melanocortin receptor 3, over 30 µM; in assay [11], over 30 µM. For the same molecule, the half-maximal activity concentration (AC50) in assay [12] is over 30 µM; in [13], over 10 µM.
For `CCOc1ccccc1OCC1CNCCO1` (stereo not given) [VILOXAZINE], the AC50 on Histamine H1 receptor was over 10 µM; on Vasopressin V2 receptor it was over 30 µM; on Histamine H3 receptor it was over 10 µM; at Histamine H2 receptor, over 10 µM; in assay [1], 0.97 µM; in [2] it was over 10 µM. Also, the concentration at half-maximal activity (AC50) in assay [3] is over 10 µM; in assay [4] it was over 10 µM; on Thromboxane A2 receptor, over 30 µM; in [5] it was over 30 µM; at Adenosine receptor A3, over 30 µM; in assay [6], over 30 µM. The half-maximal activity concentration (AC50) in [7] is 7.6 µM; in assay [8], over 10 µM; in assay [9], over 30 µM; in assay [10], over 30 µM; on Melanocortin receptor 3, over 30 µM; in [11] it was over 30 µM. For the same molecule, the AC50 in assay [12] and in assay [13] was over 10 µM in each case.
